Assay [1] has as its system ATG5. Briefly: ATG5 immunostaining in CC-HS treated iRPE. It is filed as cell-based, human. To be noted: co-treatment with CC-HS.
Assay [2] deals with iRPE cells. The assay is described as follows: Nile red staining of lipid deposits in CC-HS treated iRPE. In kind it is cell-based, human. The settings on record: co-treatment with CC-HS, vs CC-HS and vehicle.
In assay [3] the test system is iRPE cells. The assay is described as follows: Cell area and hexagonality of CC-HS treated iRPE. It is filed as cell-based, human. The settings on record: co-treatment with CC-HS.
For assay [4], the system named is rat RPE. The assay is described as follows: Rat model of RPE dedifferentiation (micropulse laser lesion, sub-retinal injection). It is filed as in vivo. The procedure: To test the in vivo activity of these drugs, a rat model of RPE dedifferentiation was developed. A 0.5 mm area of rat RPE was damaged using a micropulse laser. RPE cells in the lasered area are ablated causing the cells surrounding the laser lesion to undergo dedifferentiation due to the loss of cell-cell contacts. […] Effects of drugs on rat RPE dedifferentiation was tested by injecting either of the two drugs in the sub-retinal space of the rat eye at the time of laser injury.

The test system of assay [5] is iRPE cells. Briefly: Phagocytosis of photoreceptor outer segments by CC-HS treated iRPE. It is filed as cell-based, human. To be noted: co-treatment with CC-HS. An excerpt: Lastly, it was checked if the drugs rescued mature RPE phenotype and RPE functionality. TER of samples co-treated with drugs and CC-HS was 2-3× higher (p<10^−15) as compared to samples treated with vehicle+CC-HS was similar to TER values of CI-HS treated cells (FIG. 7G). Similarly, the addition of both drugs partially rescued (up to 2×; p<10^−15) the ability of the RPE cells to phagocytose photoreceptor outer segments, as compared to cells treated with CC-HS and the vehicle (FIG. 7H). […] The in vitro and in vivo data provides sufficient evidence to support the potential use of these drugs to delay AMD disease initiation and slow its progression.

Assay [6] relates to FIBULIN 3. Briefly: FIBULIN 3 expression in CC-HS treated iRPE. In kind it is cell-based, human. To be noted: co-treatment with CC-HS, vs CC-HS and vehicle.
Assay [7] relates to iRPE monolayer. Briefly: Transepithelial resistance (TER) of CC-HS treated iRPE monolayer. The settings on record: co-treatment with CC-HS. In kind it is cell-based, human.
Description: To further dissect the role of C5aR1 and C3aR1 signaling in inducing AMD cellular phenotypes in iRPE cells, a depleted sera and receptor blocker strategy was employed.
For assay [8], the system named is CC-HS treated iRPE cells. The assay is described as follows: RNAseq of iRPE co-treated with CC-HS and drugs. It is filed as cell-based, human. To be noted: listed as L, 745,870. An excerpt:
The key hallmark of AMD cellular phenotypes seen in cadaver eyes and observed in the in vitro model are the sub-RPE lipid and protein rich deposits, increased expression of drusen markers, and the loss of epithelial phenotype and RPE functionality. […] Similar results were obtained by RNAseq of iRPE treated with just CC-HS plus the vehicle or co-treated with CC-HS and the two drugs. Both drugs were able to suppress (4-10 fold) the expression of dedifferentiation markers in CC-HS treated iRPE cells (FIG. 13H).

Assay [9] has as its system iRPE cells. Briefly: Proteotoxic high throughput screen (LOPAC) and follow up screen: survival of A23187 treated iRPE. In kind it is cell-based, human. The settings on record: for cytoprotective activity in follow up screen: seven-point dose curve, A23187 2.5, 5, 10 μM, two iRPE samples. The procedure: 10 μM concentration of A23187 was selected for the drug screening, because it provided a bigger margin for cell death rescue. […] Drug treatment along with the stressor, 10 μM A23187 were added on to iRPE cells matured in 384-well plates and cell death was scored 48 hours later by ATP release using the CellTitrGlo assay.
To distinguish false positives from the real signal, a follow up screen on all of the 45 drugs using iRPE derived from two different iPSC lines was performed. The follow up screen was performed at three different A23187 concentrations (2.5, 5, 10 μM) and with seven different concentrations of drugs ranging from 10 nM-1 mM (FIG. 13D-F). […] Overall, the HTS screen provided two drugs for testing in the in vitro AMD model.

Entries after “also recorded” stand apart in the source; their conditions may differ.

On to `Clc1ccc(N2CCN(Cc3c[nH]c4ncccc34)CC2)cc1` [L-745,870], for which the “reduced expression of autophagy protein, ATG5” value in assay [1] is on record as “does not lead to”. In addition, the “amount of Nile red positive lipid droplets” value in assay [2] is recorded as “reduced”. Further, in assay [3], the average cell area is listed as 162.24 um2, the “cell area of CC-HS treated iRPE cells” value was “reduced area” and the “hexagonality of CC-HS treated iRPE cells” value is listed as “improved hexagonality”. Also, the hexagonality score in assay [3] (10 represents a perfect hexagon) is on record as 8.25. For the same molecule, in [4], the “area of RPE cells at the borders of laser lesion in rat eyes” value is reported as “reduced area” and the “hexagonality of RPE cells at the borders of laser lesion in rat eyes” value is “improved hexagonality”. Also, the “area of RPE cells around the laser lesion” value in [4] (sub-retinal injection at the time of laser injury) came to 439.55 um2. Further, the phagocytic ability entry in assay [5] was “increased”. In addition, the “expression of FIBULIN 3” value in [6] is given as “reduced”. For the same molecule, in [6] (listed as L745,870), the “expression of FIBULIN 3” value was “four-fold lower”. The “monolayer TER” value in [7] was “increased monolayer TER”. Besides, in [8], the “gene expression changes induced by CC-HS treatment” value is on record as “reversed gene expression changes induced by CC-HS treatment; also recorded: reversal of the upregulation of NF-KB pathway genes”. Also, in assay [9] (cell survival of A23187 treated iRPE, read-out: IC50 dose from seven-point dose response curve), the IC50 is 6 µM. The “cytoprotective activity in follow up screen” value in [9] was “reproducible cell survival; also recorded: linear response the seven-point dose curve and reproducibility between two different iRPE samples”. Moreover, in assay [9] (listed as L, 745,870), the “cytoprotective activity in follow up screen” value is on record as “reproducible cytoprotective activity”.

For the origin of these results see US20220339127A1, “DRUGGABLE TARGET TO TREAT RETINAL DEGENERATION” (The United States of America,as represented by the …, priority 2019, published 2022).
